Assay results published in a melting point compilation (Tetko et al.; mined from patent text by program, amines drawn as free bases though some values may be those of a salt).

| Compound | melting point |
| --- | --- |
| O=C(OCCl)n1c(-c2cscn2)nc2ccccc21 | 143 to 144 °C |
| CCSc1nc(-c2ccco2)c2ncn(Cc3ccc(OC)cc3)c2n1 | 116 to 117 °C |
| O=C1NC(=O)C(=Cc2ccc(N3CCC(NC[C@H](O)COc4ccccc4)CC3)cc2)S1 | 208 to 210 °C |
| C[C@@H](O)c1nccc(N2CCn3c(nnc3-c3nc4ccccc4s3)C2)n1 | 216 to 218 °C |
| CCOC(=O)c1cc2cc(C#N)ccc2[nH]1 | 181 to 182 °C |
| CCn1ncc2c(Cl)c3cccc(OC)c3nc21 | 168 to 170 °C |
| CCOC(=O)c1nn(Cc2ccc(OC)c(OC)c2)c2cc(OC)c(OC)cc12 | 138 to 141 °C |
| CC(=O)N[C@H](Cc1ccc(C#N)cc1)C(=O)O | 173 to 175 °C |
| Cc1cccc(C)c1N1CC(C)N(c2c(C)cccc2C)C1=NC(=O)C(F)(F)F (stereo unspecified) | 232 to 235 °C |
| Clc1nc2cc(Br)c(Br)c(Br)c2[nH]1 | 263 to 266 °C |
| Oc1ccc(Oc2ccc3ccccc3n2)cc1 | 177 °C |
| N#Cc1ccc(NC(=O)c2ccc3ccccc3c2O)c(OC(F)(F)F)c1 | 178 °C |
| COc1cc2c(c3c1OC(C)(C)C3)C(c1cccc(-c3ccccc3)c1)=NC(C)(C)C2 | 141 to 142 °C |
| CCN1CCc2ccc(Nc3ncc(Cl)c(Nc4ccccc4S(=O)(=O)NC)n3)cc2CC1 | 175 °C |
| O=C(O)C[C@H](NC(=O)Nc1ccc([N+](=O)[O-])cc1)C(=O)O | 118 to 120 °C |
| CC(C)(C)c1cc(CCC(=O)NCc2cccc(NC(=N)c3cccs3)c2)cc(C(C)(C)C)c1O | 163 to 164 °C |
| COc1ccc(CS(=O)(=O)Cc2ccc(OC)cc2)cc1 | 108 to 123 °C |
| CCCCNC(=O)c1nc2ccc(OC)cc2[nH]1 | 125 to 126 °C |
| CCOC(=O)CCCc1csc(NC(=O)NCc2ccccc2)n1 | 157 °C |
| COC(=O)c1ccc2c(C(C(=O)O)c3ccc4c(c3)OCO4)cn(C)c2c1 (stereo unspecified) | 194 to 198 °C |
| O=C(CN1CCN(c2ccc([N+](=O)[O-])cc2)CC1)Nc1ccc(Nc2ccccc2)cc1 | 212 to 213 °C |
| N#CN=c1ncccn1Cc1ccc(Cl)nc1 | 218 to 220 °C |
| CCOC(=O)C(Cc1ccc(OCCc2nc(-c3ccccc3)oc2C)cc1)C(=O)O (stereo unspecified) | 95.1 to 96 °C |
| CC(=O)NCCc1cn(S(=O)(=O)c2ccc(C)cc2)c2ccc(OCCN3CCCCC3)cc12 | 65 to 66 °C |
| Cc1ccc(Cc2cc(C)c(C)c(=O)n2O)c(C)c1 | 141 °C |
| COc1ccc(C2(C#Cc3cccc(C#N)c3)CCC(=O)CC2)cc1OC1CCCC1 | 124 to 126 °C |

| Compound | melting point |
| --- | --- |
| C=C(C)C(=O)Nc1cccc(C(=O)NC2=NN(c3c(Cl)cc(Cl)cc3Cl)C(=O)C2c2cc[nH]n2)c1 (stereo unspecified) | 227 to 230 °C |
| COc1ccc2ccc(S(=O)(=O)Cl)cc2c1 | 81 to 85 °C |
| COC(=O)c1ccc(C(=O)NN)cn1 | 177 to 180 °C |
| O=C1C=C(c2cccn2Cc2ccccc2)C(=O)c2ccccc21 | 99 °C |
| O=C(O)COc1cc2c(-c3ccccc3)csc2c(Cl)c1Cl | 152 to 154 °C |
| CC(C(=O)O)c1ccc2nc(N)[nH]c2c1 (stereo unspecified) | 300 °C |
| CC(CSC(=O)C(C)(C)C)C(=O)N1C(C(=O)O)CC2CCCCC21 (stereo unspecified) | 134 to 136 °C |
| COC12CC(c3nnc(-c4cncc(Br)c4)[nH]3)CN(C)C1Cc1c[nH]c3cccc2c13 (stereo unspecified) | 142 to 146 °C |
| CCOC(=O)COc1ccc([N+](=O)[O-])cc1OC | 87 to 88 °C |
| CCCC(C)CNc1cccc(-c2ccnc3c(C(=O)c4cccs4)cnn23)c1 (stereo unspecified) | 133 to 135 °C |
| CCOC(=O)CNc1nc(Cl)ccc1NC(=O)c1ccc(Cl)cc1 | 157 to 158 °C |
| COC(=O)c1ccccc1C1=NC(C)C(=S)N1 (stereo unspecified) | 134 to 138 °C |
| N#CCCNC(=O)c1cccc(-c2ccc3c(c2)N(Cc2ccc(Cl)cc2Cl)CC3)c1 | 148 to 149 °C |
| Fc1ccc(-c2cc(C(F)(F)F)n3cnc(-c4cccnc4)c3n2)cc1Cl | 188 °C |
| CCOC(=N)N1Cc2ccccc2-c2ccccc2C1 | 68 to 71 °C |
| CC(C)(C(=O)O)n1c(=O)[nH]c2cccc(F)c2c1=O | 258 to 260 °C |
| CS(=O)(=O)NC(=O)CCCCOc1cccc(O)c1C=O | 136 to 138 °C |
| O=C(Nc1ccccc1O)c1cccnc1Cl | 145 to 146 °C |
| Cn1c(=O)c(-c2ccc(Cl)cc2Cl)cc2c3cc(-c4c[nH]nc4N)ccc3n(C)c21 | 240 to 245 °C |
| CCC1c2ccccc2-c2cc(-c3cccc(O)c3)ccc2N1S(=O)(=O)c1ccc(O)cc1 (stereo unspecified) | 105 °C |
| CCCCCCCCCCCCNC1=NC(C)(C)N=C(NCc2ccc(S(N)(=O)=O)cc2)N1 | 188 to 191 °C |
| C#Cc1ccnc(-c2cc([N+](=O)[O-])c(-c3ccccc3)cc2N)c1 | 187 to 190 °C |
| NSc1ccc([N+](=O)[O-])cc1C(Cl)(Cl)Cl | 105 °C |
| COc1ccc(-n2ncc3c2-c2ccccc2C3)cc1 | 102 to 103 °C |
| CCOC(=O)c1cnn2c1N(C(=O)CCl)CC=C2c1cccc(C(F)(F)F)c1 | 141 to 142 °C |
